Data set [1] relates to LPS-stimulated peritoneal macrophages of C57bl/6j mice. The data set is described as follows: Cell viability of LPS-stimulated macrophages, MTT test. Format: cell-based. To be noted: 100 μM. The procedure: (§1) Peritoneal macrophages (PM) were isolated from the peritoneal exudate of 30 male C57bl/6j mice. To accumulate PM, 1 mL of 3% peptone solution was injected intraperitoneally. After 3 days, the mice were euthanized by cervical dislocation. Cells of peritoneal exudate were obtained by aseptic washing of the abdominal cavity with 5 mL of sterile Hanks’s solution (+4–6 °C) without calcium and magnesium ions. The total number and viability of cells were assessed in a Goryaev counting chamber (Russia) with a 0.4% trypan blue staining (Sigma-Aldrich, St. Louis, MO, USA). The cell concentration was adjusted to 1.0 × 10^6 cells/mL in DMEM (Gibco) supplemented with 2 mM L-glutamine (Gibco, Waltham, MA, USA), 10% heat-inactivated fetal bovine serum (BioClot, Bavaria, Germany), 100 U/mL penicillin, and […] streptomycin (Gibco) and plated 200 μL/well in 96-well transparent plates (SPL Life Sciences Co., Ltd., Pocheon-si, Korea). After 2 h at 37 °C in a humidified atmosphere with 5% CO2, the wells were washed to remove non-adherent cells. After 24 h of incubation, 20 μL of the supernatants were substituted with 20 μL of solutions of test compounds, followed by E. coli O127:B8 LPS (100 ng/mL final concentration) after 30 min. The experiments were run in 3 independent replicates.
The activity of lactate dehydrogenase (LDH) in a cell culture medium served as a marker of membrane permeability and cell death. Aliquotes of supernatants were taken after 24 h of inoculation with test compounds, mixed with 250 μL of […] NADH solution in 54 mM phosphate-buffered saline (pH 7.5). Then, 25 μL of a 6.48 mM pyruvate solution was added to the mixture. The optical density was followed at a wavelength of 340 nm for 20 min. The MTT-test was performed 24 h after incubations of cells with tested compounds. Briefly, 20 μL of MTT solution was added to each well, incubated at 37 °C in a humidified atmosphere containing 5% CO2 for 4 h. The culture medium was removed, the cells were lysed, and formazan crystals were dissolved in 150 μL DMSO. The plates were shaken at room temperature for 10 min, and the optical density was measured in a microplate reader Infinite M200 PRO (Tecan, Grödig, Austria) at a wavelength of 565 nm.
In general terms: Tetrazolium assays rely on reduction of a dye to a coloured formazan, in cell work by metabolically active cells.

Data set [2] has the same test system. Description: Inhibition of LPS-induced NO synthesis (nitrite accumulation, Griess reagent) in peritoneal macrophages. The format is cell-based, mouse. To be noted: 100 μM; for inhibition at 100 µM: Mus musculus, Peritoneal macrophage, 22 h, read-out: Inhibition of NO Synthesis vs. LPS Control; for inhibition at 100 µM / Inhibition of NO Synthesis vs. LPS Control: m ± SD. How it is done: as §1
The accumulation of the nitrite anion (a stable end product of NO decomposition produced by iNOS) in supernatants was determined using a standard Griess reagent. Briefly, 50 μL of supernatants were collected 22 h after incubation of PM, and the test and control compounds were mixed with 50 μL of 1% […] in 2.5% H3PO4 and 50 μL of 0.1% N-(1-naphthyl) ethylenediamine in 2.5% H3PO4. After incubation at 23 °C for 10 min in an orbital shaker, the optical density was determined at a wavelength of 550 nm with a microplate reader Infinite M200 PRO (Tecan, Grödig, Austria).
In general terms: The Griess reaction detects nitrite, a stable product of nitric oxide.

Molecules are shown by their SMILES. Where a name gives a salt, the structure may show the parent alone.

What is called inhibition is the change of the read-out against control, counted positive when it falls.

With `Cc1nc2nnnn2c(NC(C)C)c1[N+](=O)[O-]` [Compound 9a, N-Isopropyl-5-methyl-6-nitrotetrazolo[1,5-a]pyrimidin-7-amine], in data set [1] (male, C57bl/6j, mouse, 24 h), the “Cell Viability vs. LPS Control, MTT Test” value is given as 73.47 ± 12.07%. Also, the inhibition at 100 µM in data set [2] came to 47.7 ± 6.98%.
Consider `Cc1nc2nnnn2c(NC(C)(C)C)c1[N+](=O)[O-]` [Compound 9b, N-Tert-Butyl-5-methyl-6-nitrotetrazolo[1,5-a]pyrimidin-7-amine], for which the “Cell Viability vs. LPS Control, MTT Test” value in data set [1] (male, C57bl/6j, mouse, 24 h) was 104.9 ± 5.87%. The inhibition at 100 µM in data set [2] worked out at 37 ± 3.25%.
On to `Cc1nc2nnnn2c(NCCO)c1[N+](=O)[O-]` [Compound 9c, 2-[(5-Methyl-6-nitrotetrazolo[1,5-a]pyrimidin-7-yl)-amino]ethanol], for which the “Cell Viability vs. LPS Control, MTT Test” value in data set [1] (male, C57bl/6j, mouse, 24 h) was found to be 109.0 ± 2.00%. In addition, the inhibition at 100 µM in data set [2] stood at 54.2 ± 11.5%.
Consider `Cc1nc2nnnn2c(NCCCO)c1[N+](=O)[O-]` [Compound 9d, 3-[(5-Methyl-6-nitrotetrazolo[1,5-a]pyrimidin-7-yl)-amino]propanol], for which the “Cell Viability vs. LPS Control, MTT Test” value in data set [1] (male, C57bl/6j, mouse, 24 h) amounted to 116.6 ± 8.97%. In addition, the inhibition at 100 µM in data set [2] amounted to 40.3 ± 5.14%.
With `Cc1nc2nnnn2c(NCC(O)CO)c1[N+](=O)[O-]` (stereo not shown) [Compound 9e, 3-[(5-Methyl-6-nitrotetrazolo[1,5-a]pyrimidin-7-yl)-amino]propane-1,2-diol], the “Cell Viability vs. LPS Control, MTT Test” value in data set [1] (male, C57bl/6j, mouse, 24 h) came to 94.98 ± 12.48%. Moreover, in data set [2], the inhibition at 100 µM turned out to be 21.5 ± 2.74%.
Consider `Cc1nc2nnnn2c(NCCc2ccc(Cl)cc2)c1[N+](=O)[O-]` [Compound 9f, N-[2-(4-Chlorophenyl)ethyl]-5-methyl-6-nitrotetrazolo-[1,5-a]pyrimidin-7-amine], for which the “Cell Viability vs. LPS Control, MTT Test” value in data set [1] (male, C57bl/6j, mouse, 24 h) is given as 102.67 ± 6.35%. The inhibition at 100 µM in data set [2] came out at 35.8 ± 4.45%.
For the molecule `C#CCSc1nc2ncc([N+](=O)[O-])c(NCCc3ccc(Cl)cc3)n2n1` [Compound 10f, N-(4-Chlorophenethyl)-6-nitro-2-(prop-2-yn-1-yl-sulfanyl)[1,2,4]triazolo[1,5-a]pyrimidin-7-amine], in data set [1] (male, C57bl/6j, mouse, 24 h), the “Cell Viability vs. LPS Control, MTT Test” value worked out at 38.37 ± 6.89 %. The inhibition at 100 µM in data set [2] stood at 50.6 ± 1.27%.
On to `C#CCSc1nc2ncc([N+](=O)[O-])c(NCCc3ccc(O)cc3)n2n1` [Compound 10g, 4-{2-[(6-Nitro-2-(prop-2-yn-1-ylsulfanyl)[1,2,4]triazolo[1,5-a]pyrimidin-7-yl)amino]ethyl}phenol], for which, in data set [1] (male, C57bl/6j, mouse, 24 h), the “Cell Viability vs. LPS Control, MTT Test” value was determined as 30.9 ± 7.7 %. For the same molecule, in data set [2], the inhibition at 100 µM is 28.5 ± 3.21%.
Regarding `Cc1[nH]c2nc(-c3ccc([N+](=O)[O-])o3)nn2c(=O)c1[N+](=O)[O-]` [Compound 13, 2-(5-Nitrofur-2-yl)-5-methyl-6-nitro-1,2,4-triazolo[1,5-a]pyrimidin-7-one aminoguanidinium salt], the “Cell Viability vs. LPS Control, MTT Test” value in data set [1] (m ± SD) was 96.97 ± 7.18%. For the same molecule, in data set [2], the “Inhibition of nitric oxide synthesis (in words)” value was “comparable to that of the tetrazolopyrimidine series” and the “Inhibition of NO Synthesis vs. LPS Control” value was 58.97 ± 7.07 %.
As to `Cc1[nH]c2nc(-c3ccc([N+](=O)[O-])o3)nn2c(=O)c1[N+](=O)[O-]` [Compound 14, 2-(5-Nitrofur-2-yl)-5-methyl-6-nitro-1,2,4-triazolo[1,5-a]pyrimidin-7-one guanidinium salt], in data set [1] (m ± SD), the “Cell Viability vs. LPS Control, MTT Test” value was determined as 111.95 ± 8.67%. Besides, in data set [2], the “Inhibition of nitric oxide synthesis (in words)” value is “did not demonstrate inhibition of nitric oxide synthesis” and the “Inhibition of NO Synthesis vs. LPS Control” value amounted to 16.09 ± 5.78%.
